Patent US12544375B2, “Small molecule therapeutic for parkinson's disease paired with a biomarker of therapeutic activity” (The Board of Trustees of the Leland Stanford Junior …, priority 2019, dated 2026)

Molecular target: T1, Miro1 (Homo sapiens, UniProt Q8IXI2)
T1 construct: We applied compound 3 to fibroblasts from one sporadic PD patient (PD-2); endogenous in cells; host or cells: human skin fibroblasts (PD-2, Healthy-1 and further PD/control lines)
Assay: Miro1 response to CCCP in PD fibroblasts, Western blotting
Type: cell-based
Method: FIG. 2A-FIG. 2F. Miro1 Reducer Eliminates the Miro1 Defect in PD Fibroblasts. (FIG. 2A) Chemical properties of Miro1 Reducer. (FIG. 2B) Wild-type flies (w^1118) were fed with DMSO alone (0 μM Miro1 Reducer) or Miro1 Reducer in DMSO at 250 μM for 7 days, and lysed and blotted as indicated. The band intensities are normalized to those of Tubulin from the same blots. n=4. (FIG. 2C-FIG. 2E) Fibroblasts were treated, lysed, and blotted as indicated. (FIG. 2C) Band intensities are normalized to those of GAPDH from the same blots and compared to “Healthy-1, no treatment” except otherwise indicated. n=4. (FIG. 2D) Band intensities are normalized to those of ATP5β from the same blots and expressed as a percentage of the mean of “0 μM Miro1 Reducer with CCCP”. Mean±S.E.M is shown. n=3. (FIG. 2E) Band intensities are normalized to those of GAPDH from the same blots and compared to “Healthy-1, no CCCP, no MG132” except otherwise indicated. n=4. (FIG. 2F) Healthy-1 and PD-2 fibroblasts were transfected as indicated, and immunostained with anti-Myc (Miro1, green) and stained with Dapi (blue). The Miro1 intensity is normalized to that of mito-dsRed from the same cell and quantified across 37-62 cells from 5 fields each transfection, 3 independent transfections. Scale bars: 50 μm. For (FIG. 2C-FIG. 2F), both CCCP and Miro1 Reducer were dissolved in DMSO. Cells were pretreated with Miro1 Reducer 24 hrs before the application of CCCP for another 6 hrs. The same volume of DMSO was applied at the same time in negative controls.
FIG. 3A-FIG. 3D. Miro1 Reducer Rescues Parkinson's Neurodegeneration. (FIG. 3A) Fibroblasts were treated, lysed, and blotted as indicated. Band intensities are normalized to those of ATP5β from the same blots and compared to “Healthy-2, no treatment”. n=4. (FIG. 3B-FIG. 3C) iPSC-derived neurons were treated as indicated and immunostained with anti-TH (FIG. 3B) or stained with PI and Dapi (FIG. 3C). Both Antimycin A and Miro1 Reducer were dissolved in ethanol. Neurons were pretreated with Miro1 Reducer 24 hrs before the application of Antimycin A for another 6 hrs. The same volume of ethanol was applied at the same time in negative controls. (FIG. 3B) The density of TH-positive neurons is calculated in each condition under 20×, from 10 fields each experiment, 3-4 experiments. […] (FIG. 3C) The percentage of PI-positive cells out of total cells (Dapi-positive) is calculated. n=20 fields each experiment, 4 experiments. […] Graphs of Mean±S.E.M show the percent of time each mitochondrion is in motion (red and blue, compared to “Wild-type-I, before treatment”), and the mitochondrial intensity normalized to that of the same axonal region at “0 min” and expressed as a fraction of the mean of “Wild-type-I, 0 min”. n=33-77 mitochondria from 5-8 axons from 5-8 separate transfections. […]

T1 sequence (Q8IXI2 whole entry): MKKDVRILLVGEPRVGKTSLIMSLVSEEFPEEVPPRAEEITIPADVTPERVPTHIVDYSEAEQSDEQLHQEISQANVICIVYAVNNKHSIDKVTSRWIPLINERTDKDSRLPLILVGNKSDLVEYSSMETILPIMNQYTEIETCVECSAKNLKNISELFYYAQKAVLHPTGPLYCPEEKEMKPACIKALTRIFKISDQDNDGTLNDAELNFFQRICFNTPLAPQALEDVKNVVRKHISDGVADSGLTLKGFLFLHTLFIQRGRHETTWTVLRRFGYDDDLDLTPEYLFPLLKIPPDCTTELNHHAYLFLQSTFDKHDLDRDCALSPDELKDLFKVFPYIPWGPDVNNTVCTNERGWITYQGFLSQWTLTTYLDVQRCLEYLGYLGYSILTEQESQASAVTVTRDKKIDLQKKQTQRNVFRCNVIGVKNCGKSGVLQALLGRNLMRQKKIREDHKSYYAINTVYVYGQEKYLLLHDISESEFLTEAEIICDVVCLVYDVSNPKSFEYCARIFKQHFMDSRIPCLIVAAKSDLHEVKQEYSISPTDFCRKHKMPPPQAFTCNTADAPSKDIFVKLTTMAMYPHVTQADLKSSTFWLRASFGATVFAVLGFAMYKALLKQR

`O=C(Nc1ccc(Nc2cc(-n3ccnc3)ncn2)cc1)Nc1cccc(F)c1` [Miro1 Reducer] was tested, and the “Miro1 degradation following CCCP treatment” value (PD-2 fibroblasts, 10 μM for 30 hrs, CCCP 6 hrs) was “robustly promoted Miro1 degradation”, the “reduction of Miro1 protein in presence of proteasome inhibitor MG132” value (PD-2 fibroblasts, following CCCP treatment) was “blocked by the proteasome inhibitor MG132” and the “Miro1 degradation after depolarization in additional lines” value (additional 4 control and 4 sporadic PD fibroblast cell lines) was “same beneficial change of Miro1 degradation after depolarization”. It also gave an IC50 (fibroblasts pretreated 24 hrs, then CCCP 6 hrs, FIG. 2D, read-out: Miro1 protein levels, dose-dependent response (IC50)) of 7.8 µM.
